Measurements published in patent US10189845B2, “4,6-substituted-pyrazolo[1,5-a]pyrazines as janus kinase inhibitors” (ARRAY BIOPHARMA INC., priority 2014, dated 2019).

Key:
Format in all cases: biochemical
JAK2 = JAK2 (Homo sapiens (Human), UniProt O60674); experiment: JAK2 Inhibition Assay (Example C, Omnia kinase fluorescence peptide substrate assay); conditions: JAK2 Enzyme IC50 1 mM ATP, averaged IC50 ranges
Procedure, shortened: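 4 nM JAK2 with 1 mM ATP and 10 μM Omnia Y7 peptide in 25 mM HEPES pH 7.4, 10 mM MgCl2, 0.01% Triton X-100, 1 mM DTT, 2% DMSO. Sox fluorescence (ex 360/em 485 nm) read every 50 s for 45 min; IC50 from 4-parameter fit of percent of control.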

JAK3 = JAK3 (Homo sapiens (Human), UniProt P52333); experiment: JAK3 Inhibition Assay (Example D, Omnia kinase fluorescence peptide substrate assay)
JAK3, sequence (P52333 whole entry): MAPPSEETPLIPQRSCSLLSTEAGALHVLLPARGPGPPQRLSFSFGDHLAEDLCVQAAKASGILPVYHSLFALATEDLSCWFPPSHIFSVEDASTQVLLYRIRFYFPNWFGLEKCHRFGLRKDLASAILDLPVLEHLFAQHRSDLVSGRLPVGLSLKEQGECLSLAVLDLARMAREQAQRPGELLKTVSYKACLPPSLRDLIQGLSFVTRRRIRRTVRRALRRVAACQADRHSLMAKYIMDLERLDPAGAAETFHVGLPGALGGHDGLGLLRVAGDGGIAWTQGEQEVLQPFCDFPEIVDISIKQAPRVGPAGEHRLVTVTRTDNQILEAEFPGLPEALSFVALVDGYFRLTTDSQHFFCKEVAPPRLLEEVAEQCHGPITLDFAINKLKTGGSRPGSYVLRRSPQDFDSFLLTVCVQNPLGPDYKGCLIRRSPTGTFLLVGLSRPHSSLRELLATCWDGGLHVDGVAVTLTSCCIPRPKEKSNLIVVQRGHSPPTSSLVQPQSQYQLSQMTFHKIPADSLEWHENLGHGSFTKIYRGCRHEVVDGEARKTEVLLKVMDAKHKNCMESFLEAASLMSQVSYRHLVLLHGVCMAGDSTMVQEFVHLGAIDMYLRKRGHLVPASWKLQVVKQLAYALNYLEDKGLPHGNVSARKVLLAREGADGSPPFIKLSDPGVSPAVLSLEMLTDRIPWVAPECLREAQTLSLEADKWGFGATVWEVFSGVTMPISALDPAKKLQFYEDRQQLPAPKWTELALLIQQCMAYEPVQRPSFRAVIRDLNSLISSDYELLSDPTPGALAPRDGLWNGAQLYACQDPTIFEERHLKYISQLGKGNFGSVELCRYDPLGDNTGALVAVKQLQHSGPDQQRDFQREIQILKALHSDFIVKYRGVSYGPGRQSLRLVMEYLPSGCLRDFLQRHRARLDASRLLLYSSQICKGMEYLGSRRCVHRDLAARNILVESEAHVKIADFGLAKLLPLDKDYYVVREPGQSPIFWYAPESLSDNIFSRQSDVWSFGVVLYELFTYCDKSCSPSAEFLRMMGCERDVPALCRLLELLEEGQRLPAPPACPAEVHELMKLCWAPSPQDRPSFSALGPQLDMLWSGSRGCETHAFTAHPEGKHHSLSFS
Procedure, shortened: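 Mixture held 2 nM JAK3, 1 mM ATP and 10 μM Omnia Y7 peptide in 25 mM HEPES pH 7.4, 10 mM MgCl2, 0.01% Triton X-100, 1 mM DTT, 2% DMSO final. Sox fluorescence (ex 360/em 485 nm) was read every 50 s for 45 min. IC50 came from a 4-parameter logistic fit of percent of control.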

Human Tyk2 kinase domain = Human Tyk2 kinase domain (Homo sapiens (Human), UniProt P29597); experiment: Tyk2 Inhibition Assay (Example A, Omnia kinase fluorescence peptide substrate assay); conditions: TYK2 Enzyme IC50 1 mM ATP, averaged IC50 ranges
Human Tyk2 kinase domain, sequence (P29597 886-1187): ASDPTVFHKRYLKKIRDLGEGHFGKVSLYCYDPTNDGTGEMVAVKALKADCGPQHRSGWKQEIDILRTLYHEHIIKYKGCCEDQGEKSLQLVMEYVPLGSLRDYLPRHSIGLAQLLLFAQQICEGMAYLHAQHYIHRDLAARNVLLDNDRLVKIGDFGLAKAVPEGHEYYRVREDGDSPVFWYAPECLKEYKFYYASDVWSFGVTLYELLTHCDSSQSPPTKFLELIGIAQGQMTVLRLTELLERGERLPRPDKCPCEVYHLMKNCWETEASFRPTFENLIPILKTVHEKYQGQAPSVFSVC
Procedure, shortened: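 Omnia Sox-peptide kinetic fluorescence assay (ex 360/em 485 nm, read every 50 s for 45 min) with 1 nM human Tyk2 kinase domain (aa 886–1187, His tag cleaved, baculovirus-expressed), 1 mM ATP, 8 μM Omnia Y12 peptide, in 25 mM HEPES pH 7.4, 10 mM MgCl2, 0.01% Triton X-100, 1 mM DTT, 2% DMSO. IC50 from 4-parameter logistic fit of percent of control.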

JAK1 = JAK1 (Homo sapiens (Human), UniProt P23458); experiment: JAK1 Inhibition Assay (Example B, Omnia kinase fluorescence peptide substrate assay)
JAK1, sequence (P23458 whole entry): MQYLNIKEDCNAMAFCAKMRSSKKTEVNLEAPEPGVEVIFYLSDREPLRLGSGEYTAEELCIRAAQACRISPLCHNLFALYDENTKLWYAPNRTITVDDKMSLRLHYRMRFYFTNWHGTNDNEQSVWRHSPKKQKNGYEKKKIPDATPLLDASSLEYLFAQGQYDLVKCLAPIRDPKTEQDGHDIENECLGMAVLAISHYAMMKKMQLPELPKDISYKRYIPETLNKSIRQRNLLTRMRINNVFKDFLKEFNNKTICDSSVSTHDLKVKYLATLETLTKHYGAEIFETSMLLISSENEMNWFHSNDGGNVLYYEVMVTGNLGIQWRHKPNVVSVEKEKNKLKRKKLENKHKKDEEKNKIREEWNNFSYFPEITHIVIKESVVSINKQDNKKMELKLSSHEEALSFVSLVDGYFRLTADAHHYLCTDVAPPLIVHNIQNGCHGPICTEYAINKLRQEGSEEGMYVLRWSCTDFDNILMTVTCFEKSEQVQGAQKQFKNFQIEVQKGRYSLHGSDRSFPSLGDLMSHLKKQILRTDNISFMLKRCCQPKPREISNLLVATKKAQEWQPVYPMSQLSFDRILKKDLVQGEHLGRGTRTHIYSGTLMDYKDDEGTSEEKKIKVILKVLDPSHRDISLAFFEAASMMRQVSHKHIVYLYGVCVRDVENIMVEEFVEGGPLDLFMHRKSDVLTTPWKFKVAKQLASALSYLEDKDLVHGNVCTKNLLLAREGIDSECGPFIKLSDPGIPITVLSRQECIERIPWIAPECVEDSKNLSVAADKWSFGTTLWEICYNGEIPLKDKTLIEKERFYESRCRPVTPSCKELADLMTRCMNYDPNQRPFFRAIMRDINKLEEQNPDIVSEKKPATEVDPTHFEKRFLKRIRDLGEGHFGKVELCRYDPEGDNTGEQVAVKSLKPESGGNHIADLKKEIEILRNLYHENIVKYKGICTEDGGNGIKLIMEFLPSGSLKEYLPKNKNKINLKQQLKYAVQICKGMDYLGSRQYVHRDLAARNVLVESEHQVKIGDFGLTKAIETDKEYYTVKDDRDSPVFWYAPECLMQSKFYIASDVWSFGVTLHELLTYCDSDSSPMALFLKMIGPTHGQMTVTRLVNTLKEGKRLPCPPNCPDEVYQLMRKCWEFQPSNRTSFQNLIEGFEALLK
Procedure, shortened: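 Recombinant human JAK1 (12.5 nM) with 1 mM ATP and 8 μM Omnia Y12 Sox-peptide in 25 mM HEPES pH 7.4, 10 mM MgCl2, 0.01% Triton X-100, 1 mM DTT, 2% DMSO final. Phosphorylation read kinetically (ex 360/em 485 nm, 45 min); IC50 from 4-parameter fit of percent of control.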

JAK2, sequence (O60674 whole entry): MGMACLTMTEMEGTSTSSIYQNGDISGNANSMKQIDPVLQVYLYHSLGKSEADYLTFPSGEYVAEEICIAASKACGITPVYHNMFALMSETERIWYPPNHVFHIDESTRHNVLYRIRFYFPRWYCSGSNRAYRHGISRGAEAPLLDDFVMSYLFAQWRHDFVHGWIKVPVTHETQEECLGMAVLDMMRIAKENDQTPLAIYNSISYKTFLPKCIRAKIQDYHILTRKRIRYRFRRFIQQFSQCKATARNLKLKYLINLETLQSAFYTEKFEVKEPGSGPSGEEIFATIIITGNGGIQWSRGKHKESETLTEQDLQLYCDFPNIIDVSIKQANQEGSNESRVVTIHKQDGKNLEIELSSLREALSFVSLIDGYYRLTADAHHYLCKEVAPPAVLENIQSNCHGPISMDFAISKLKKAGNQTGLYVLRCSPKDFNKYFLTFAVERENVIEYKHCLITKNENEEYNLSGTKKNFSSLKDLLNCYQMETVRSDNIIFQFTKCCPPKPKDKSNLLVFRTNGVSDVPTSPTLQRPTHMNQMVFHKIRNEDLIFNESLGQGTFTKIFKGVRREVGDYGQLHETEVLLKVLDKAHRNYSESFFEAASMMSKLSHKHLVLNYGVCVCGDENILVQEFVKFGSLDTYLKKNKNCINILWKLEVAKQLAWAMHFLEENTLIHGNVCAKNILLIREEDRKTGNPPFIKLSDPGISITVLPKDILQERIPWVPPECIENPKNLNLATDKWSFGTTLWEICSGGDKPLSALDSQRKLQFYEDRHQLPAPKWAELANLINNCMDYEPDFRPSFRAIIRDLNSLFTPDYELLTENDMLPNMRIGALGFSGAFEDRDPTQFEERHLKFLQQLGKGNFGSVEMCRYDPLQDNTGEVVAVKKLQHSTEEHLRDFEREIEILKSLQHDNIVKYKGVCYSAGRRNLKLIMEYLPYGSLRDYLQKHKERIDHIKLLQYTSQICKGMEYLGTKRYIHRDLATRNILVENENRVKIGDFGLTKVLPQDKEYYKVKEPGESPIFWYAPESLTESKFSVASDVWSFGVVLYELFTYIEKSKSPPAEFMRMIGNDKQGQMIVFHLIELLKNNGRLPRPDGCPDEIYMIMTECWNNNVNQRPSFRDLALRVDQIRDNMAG

| IC50 (JAK2) | IC50 (JAK3) | IC50 (Human Tyk2 kinase domain) | IC50 (JAK1) | Structure (SMILES) |
| --- | --- | --- | --- | --- |
| 100 to 1000 nM | 1000 to 10000 nM | 100 to 1000 nM | 1000 to 10000 nM | CC(C)C[C@H](C)n1cc(-c2nc(-c3cnn(C(CO)CO)c3)cn3nccc23)cn1 [Example 87, (S)-2-(4-(4-(1-(4-methylpentan-2-yl)-1H-pyrazol-4-yl)pyrazolo[1,5-a]pyrazin-6-yl)-1H-pyrazol-1-yl)propane-1,3-diol] |
| 1000 to 10000 nM | 1000 to 10000 nM | 100 to 1000 nM | 1000 to 10000 nM | Cn1cc(-c2cn3nccc3c(-c3cnn(C4CCCC4CO)c3)n2)cn1 (centres unmarked) [Example 51, (2-(4-(6-(1-methyl-1H-pyrazol-4-yl)pyrazolo[1,5-a]pyrazin-4-yl)-1H-pyrazol-1-yl)cyclopentyl)methanol] |
